From US8975398B2, “NAMPT inhibitors” (AbbVie Inc., priority 2012, dated 2015)

Tested on: PC3 cells
Experiment: NAMPT Cell Proliferation Assay (Cell Titer Glo; also performed in the presence of 0.3 mM nicotinamide mononucleotide)
Assay type: cell-based
Details: Homo sapiens, PC-3, 120 h, 5 days incubation, cell viability by Cell Titer Glo
Method in brief: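 Cell Titer Glo viability after 5-day exposure (37° C, 5% CO2); PC3, 500 cells/well, RPMI + 10% heat-inactivated FBS, overnight attachment before dosing. Dose range 10 μM to 1×10^−5 μM, 10-fold steps. IC50 = sigmoidal fit of % inhibition.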

SMILES | IC50
Cc1ccc(N2CC(C(=O)Nc3ccc(O[C@@H]4CCN(C(=O)c5cscn5)C4)cc3)C2)nn1 [Example 918, 1-(6-methylpyridazin-3-yl)-N-(4-{[(3R)-1-(1,3-thiazol-4-ylcarbonyl)pyrrolidin-3-yl]oxy}phenyl)azetidine-3-carboxamide] | 717 nM
CN1CCCC(CNC(=O)c2ccc(NC(=O)C3CN(c4cccnn4)C3)cc2)C1 (stereo not drawn) [Example 1003, N-(4-{[(1-methylpiperidin-3-yl)methyl]carbamoyl}phenyl)-1-(pyridazin-3-yl)azetidine-3-carboxamide] | 1070 nM
O=C(NC1(C2CC2)CC1)c1ccc(NC(=O)C2CN(c3cccnn3)C2)cc1 [Example 983, N-{4-[1,1′-bi(cyclopropyl)-1-ylcarbamoyl]phenyl}-1-(pyridazin-3-yl)azetidine-3-carboxamide] | 604 nM
O=C(N[C@H]1CCOC1)c1ccc(NC(=O)C2CN(c3cccnn3)C2)cc1 [Example 1020, 1-(pyridazin-3-yl)-N-{4-[(3S)-tetrahydrofuran-3-ylcarbamoyl]phenyl}azetidine-3-carboxamide] | 7270 nM
Nc1ncccc1C(=O)N1CCC(c2ccc(NC(=O)C3CN(c4cccnn4)C3)cc2)CC1 [Example 910, N-(4-{1-[(2-aminopyridin-3-yl)carbonyl]piperidin-4-yl}phenyl)-1-(pyridazin-3-yl)azetidine-3-carboxamide] | 6.51 nM
CN1CCC(NC(=O)c2ccc(NC(=O)C3CN(c4cccnn4)C3)cc2)CC1 [Example 986, N-{4-[(1-methylpiperidin-4-yl)carbamoyl]phenyl}-1-(pyridazin-3-yl)azetidine-3-carboxamide] | 7470 nM
Cc1ccc(N2CC[C@H](C(=O)Nc3ccc(C4CCN(C(=O)c5ccccc5F)CC4)cc3)C2)nn1 [Example 892, (3S)—N-{4-[1-(2-fluorobenzoyl)piperidin-4-yl]phenyl}-1-(6-methylpyridazin-3-yl)pyrrolidine-3-carboxamide] | 146 nM
O=C(NC1CCCC1)c1ccc(NC(=O)C2CN(c3cccnn3)C2)cc1 [Example 1005, N-[4-(cyclopentylcarbamoyl)phenyl]-1-(pyridazin-3-yl)azetidine-3-carboxamide] | 592 nM
O=C(Nc1ccc(C2CCN(C(=O)CC(F)(F)F)CC2)c(F)c1)C1CN(c2cccnn2)C1 [Example 881, N-{3-fluoro-4-[1-(3,3,3-trifluoropropanoyl)piperidin-4-yl]phenyl}-1-(pyridazin-3-yl)azetidine-3-carboxamide] | 8.18 nM
CC(C)(C)CC(=O)N1CCC(c2ccc(C(=O)N[C@H]3CCN(c4cccnn4)C3)s2)CC1 [Example 1014, 5-[1-(3,3-dimethylbutanoyl)piperidin-4-yl]-N-[(3S)-1-(pyridazin-3-yl)pyrrolidin-3-yl]thiophene-2-carboxamide] | 219 nM
O=C(NCC1COC1)c1ccc(NC(=O)C2CN(c3cccnn3)C2)cc1 [Example 990, N-{4-[(oxetan-3-ylmethyl)carbamoyl]phenyl}-1-(pyridazin-3-yl)azetidine-3-carboxamide] | 6810 nM
CC1(NC(=O)c2ccc(NC(=O)C3CN(c4cccnn4)C3)cc2)CCC1 [Example 1011, N-{4-[(1-methylcyclobutyl)carbamoyl]phenyl}-1-(pyridazin-3-yl)azetidine-3-carboxamide] | 113 nM
CCOC(=O)c1cc(-c2ccc(NC(=O)C3CN(c4cccnn4)C3)cc2)n(C)n1 [Example 912, ethyl 1-methyl-5-[4-({[1-(pyridazin-3-yl)azetidin-3-yl]carbonyl}amino)phenyl]-1H-pyrazole-3-carboxylate] | 64.2 nM
O=C(N[C@H]1CCN(c2cccnn2)C1)c1ccc(C2CCN(C(=O)c3ccccc3F)CC2)o1 [Example 907, 5-[1-(2-fluorobenzoyl)piperidin-4-yl]-N-[(3S)-1-(pyridazin-3-yl)pyrrolidin-3-yl]furan-2-carboxamide] | 6750 nM
CC(C)(C)C(=O)N1CCC(c2ccc(C(=O)N[C@H]3CCN(c4cccnn4)C3)s2)CC1 [Example 1013, 5-[1-(2,2-dimethylpropanoyl)piperidin-4-yl]-N-[(3S)-1-(pyridazin-3-yl)pyrrolidin-3-yl]thiophene-2-carboxamide] | 213 nM
O=C(Nc1ccc(CC2CCN(C(=O)c3cn[nH]c3)CC2)cc1)C1CN(c2cccnn2)C1 [Example 929, N-(4-{[1-(1H-pyrazol-4-ylcarbonyl)piperidin-4-yl]methyl}phenyl)-1-(pyridazin-3-yl)azetidine-3-carboxamide] | 27.1 nM
Cc1ccc(N2CC[C@H](C(=O)Nc3ccc(C4CCN(C(=O)C(C)(C)C)CC4)cc3)C2)nn1 [Example 894, (3S)—N-{4-[1-(2,2-dimethylpropanoyl)piperidin-4-yl]phenyl}-1-(6-methylpyridazin-3-yl)pyrrolidine-3-carboxamide] | 752 nM
Cc1ccc(N2CC(C(=O)Nc3ccc(C4CCN(C(=O)c5ccccc5)CC4)cc3)C2)cn1 [Example 876, N-[4-(1-benzoylpiperidin-4-yl)phenyl]-1-(6-methylpyridin-3-yl)azetidine-3-carboxamide] | 29.2 nM
CC(=O)N1CCC(Cc2ccc(NC(=O)C3CN(c4cccnn4)C3)cc2)CC1 [Example 902, N-{4-[(1-acetylpiperidin-4-yl)methyl]phenyl}-1-(pyridazin-3-yl)azetidine-3-carboxamide] | 6.45 nM
O=C(NCCC1CC1)c1ccc(NC(=O)C2CN(c3cccnn3)C2)cc1 [Example 975, N-{4-[(2-cyclopropylethyl)carbamoyl]phenyl}-1-(pyridazin-3-yl)azetidine-3-carboxamide] | 98 nM
CC(C)CC(=O)N1CCC(c2ccc(NC(=O)C3CN(c4cccnn4)C3)cc2F)CC1 [Example 887, N-{3-fluoro-4-[1-(3-methylbutanoyl)piperidin-4-yl]phenyl}-1-(pyridazin-3-yl)azetidine-3-carboxamide] | 8.47 nM
C[C@H](NC(=O)c1ccc(NC(=O)C2CN(c3cccnn3)C2)cc1)C1CC1 [Example 981, N-(4-{[(1S)-1-cyclopropylethyl]carbamoyl}phenyl)-1-(pyridazin-3-yl)azetidine-3-carboxamide] | 1060 nM

Further compounds by falling IC50, results first:

IC50 | SMILES
6.43 nM | CC(C)(C)CC(=O)N1CCC(c2ccc(NC(=O)C3CN(c4cccnn4)C3)cc2F)CC1 [Example 882, N-{4-[1-(3,3-dimethylbutanoyl)piperidin-4-yl]-3-fluorophenyl}-1-(pyridazin-3-yl)azetidine-3-carboxamide]
5.57 nM | CCCCC(=O)N1CCC(Cc2ccc(NC(=O)C3CN(c4cccnn4)C3)cc2)CC1 [Example 961, N-{4-[(1-pentanoylpiperidin-4-yl)methyl]phenyl}-1-(pyridazin-3-yl)azetidine-3-carboxamide]
5.43 nM | CC(C)(C)CC(=O)N1CCC(c2ccc(NC(=O)C3CN(c4cccnn4)C3)cn2)CC1 [Example 920, N-{6-[1-(3,3-dimethylbutanoyl)piperidin-4-yl]pyridin-3-yl}-1-(pyridazin-3-yl)azetidine-3-carboxamide]
4.51 nM | COCCOCC(=O)N1CCC(Cc2ccc(NC(=O)C3CN(c4cccnn4)C3)cc2)CC1 [Example 945, N-[4-({1-[(2-methoxyethoxy)acetyl]piperidin-4-yl}methyl)phenyl]-1-(pyridazin-3-yl)azetidine-3-carboxamide]
2.89 nM | CCOCC(=O)N1CCC(Cc2ccc(NC(=O)C3CN(c4cccnn4)C3)cc2)CC1 [Example 946, N-(4-{[1-(ethoxyacetyl)piperidin-4-yl]methyl}phenyl)-1-(pyridazin-3-yl)azetidine-3-carboxamide]
2.85 nM | O=C(Nc1ccc(C2(O)CCN(C(=O)c3ccccc3F)CC2)cc1)C1CN(c2cccnn2)C1 [Example 889, N-{4-[1-(2-fluorobenzoyl)-4-hydroxypiperidin-4-yl]phenyl}-1-(pyridazin-3-yl)azetidine-3-carboxamide]
2.7 nM | CCC(C)(C)C(=O)N1CCC(Cc2ccc(NC(=O)C3CN(c4cccnn4)C3)cc2)CC1 [Example 930, N-(4-{[1-(2,2-dimethylbutanoyl)piperidin-4-yl]methyl}phenyl)-1-(pyridazin-3-yl)azetidine-3-carboxamide]
2.62 nM | O=C(Nc1ccc(CC2CCN(C(=O)c3cscn3)CC2)cc1)C1CN(c2cccnn2)C1 [Example 937, 1-(pyridazin-3-yl)-N-(4-{[1-(1,3-thiazol-4-ylcarbonyl)piperidin-4-yl]methyl}phenyl)azetidine-3-carboxamide]
2.6 nM | O=C(Nc1ccc(CC2CCN(C(=O)C3CCCCC3)CC2)cc1)C1CN(c2cccnn2)C1 [Example 965, N-(4-{[1-(cyclohexylcarbonyl)piperidin-4-yl]methyl}phenyl)-1-(pyridazin-3-yl)azetidine-3-carboxamide]
2.24 nM | O=C(Nc1ccc(CC2CCN(C(=O)CCC(F)(F)F)CC2)cc1)C1CN(c2cccnn2)C1 [Example 900, 1-(pyridazin-3-yl)-N-(4-{[1-(4,4,4-trifluorobutanoyl)piperidin-4-yl]methyl}phenyl)azetidine-3-carboxamide]
2.17 nM | O=C(Nc1ccc(CC2CCN(C(=O)c3ccco3)CC2)cc1)C1CN(c2cccnn2)C1 [Example 952, N-(4-{[1-(furan-2-ylcarbonyl)piperidin-4-yl]methyl}phenyl)-1-(pyridazin-3-yl)azetidine-3-carboxamide]
1.95 nM | CC1(C(=O)N2CCC(Cc3ccc(NC(=O)C4CN(c5cccnn5)C4)cc3)CC2)CC1 [Example 904, N-[4-({1-[(1-methylcyclopropyl)carbonyl]piperidin-4-yl}methyl)phenyl]-1-(pyridazin-3-yl)azetidine-3-carboxamide]
1.63 nM | O=C(Nc1ccc(C2CCN(C(=O)c3ccccc3F)CC2)c(F)c1)C1CN(c2cccnn2)C1 [Example 885, N-{3-fluoro-4-[1-(2-fluorobenzoyl)piperidin-4-yl]phenyl}-1-(pyridazin-3-yl)azetidine-3-carboxamide]
1.56 nM | CC(C)(C)C(=O)N1CCC(Cc2ccc(NC(=O)C3CN(c4cccnn4)C3)cc2)CC1 [Example 897, N-(4-{[1-(2,2-dimethylpropanoyl)piperidin-4-yl]methyl}phenyl)-1-(pyridazin-3-yl)azetidine-3-carboxamide]
